The supplement of paper PMC10627819

How the values were obtained:
B. subtilis 168 [1] = assay: fitness (endpoint OD595 vs no drug) (fraction); higher = more growth
Method in brief: (§1)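 At 37 °C, bacteria in TSB, LB Lennox or CY were grown in 384-well plates from a starting OD595 of 0.01. OD595 was measured every 30 min for 14 h, with the first reading used as background. Fitness is the optical density at the switch to stationary phase as a fraction of the robust mean of no-drug control wells, capped at 1.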

S. aureus Newman [2] = assay: as above
Method in brief: as §1

S. pneumoniae D39V [3] = assay: as above
Method in brief: as §1

B. subtilis 168 [4] = assay: Bliss interaction score (quartile over a dose matrix) (fitness difference); higher = more antagonism (negative = synergy)
Method in brief: (§2)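 Quartiles summarise the Bliss score over technical, biological and donor/recipient replicates, where the score is observed minus expected fitness under a product model. Expected fitness uses single-drug values inferred from combination data. Fitness is OD595 at entry into stationary phase over the plate's robust no-drug mean, capped at 1.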

S. aureus DSM 20231 = assay: as above
Method in brief: as §2

S. aureus Newman [5] = assay: as above
Method in brief: as §2

S. pneumoniae D39V [6] = assay: as above
Method in brief: as §2
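Wherever Bliss interaction score (quartile over a dose matrix) is given: first quartile when negative (synergy) and third quartile when positive (antagonism).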

CCN(CC)CCOC(=O)c1ccc(N)cc1 [Procaine] + CN[C@@H]1[C@H](O[C@H]2[C@H](O[C@H]3[C@H](O)[C@@H](O)[C@H](N=C(N)N)[C@@H](O)[C@@H]3N=C(N)N)O[C@@H](C)[C@]2(O)C=O)O[C@@H](CO)[C@H](O)[C@H]1O [Streptomycin]
fitness
Conditions	first compound 85.5 µg/mL	first compound 171 µg/mL	first compound 342 µg/mL
B. subtilis 168 [1], partner 2 µg/mL	0.914	0.921	0.94
B. subtilis 168 [1], partner 8 µg/mL	0.0423	0.0261	0.0278
S. aureus Newman [2], partner 1 µg/mL	0.994	0.963	0.957
S. aureus Newman [2], partner 2 µg/mL	0.983	0.96	0.985
S. pneumoniae D39V [3], partner 2 µg/mL	0.985	0.988	0.933
S. pneumoniae D39V [3], partner 4 µg/mL	0.984	0.984	0.945
S. pneumoniae D39V [3], partner 8 µg/mL	0.952	0.92	0.9

S. pneumoniae D39V [3], partner 16 µg/mL, one replicate
Conditions	fitness
first compound 85.5 µg/mL	0.815
first compound 171 µg/mL	0.759
first compound 342 µg/mL	0.75

Conditions	Bliss interaction score
B. subtilis 168 [4]	-0.117
S. aureus DSM 20231	0.0982
S. aureus Newman [5]	0.0657
S. pneumoniae D39V [6]	0.0529

CCN(CC)CCOC(=O)c1ccc(N)cc1 [Procaine] + CN(C)c1cc(NC(=O)CNC(C)(C)C)c(O)c2c1C[C@H]1C[C@H]3[C@H](N(C)C)C(O)=C(C(N)=O)C(=O)[C@@]3(O)C(O)=C1C2=O [Tigecycline]
fitness
Conditions	first compound 85.5 µg/mL	first compound 171 µg/mL	first compound 342 µg/mL
B. subtilis 168 [1], partner 0.039 µg/mL	0.94	0.978	0.929
B. subtilis 168 [1], partner 0.078 µg/mL	0.916	0.96	0.858
B. subtilis 168 [1], partner 0.156 µg/mL	0.895	0.909	0.856
S. aureus Newman [2], partner 0.039 µg/mL	0.955	0.965	0.928
S. aureus Newman [2], partner 0.078 µg/mL	≥ 1	0.986	0.996
S. aureus Newman [2], partner 0.156 µg/mL	≥ 1	≥ 1	0.991
S. pneumoniae D39V [3], partner 0.65 µg/mL	0.974	0.993	1
S. pneumoniae D39V [3], partner 1.3 µg/mL	0.946	0.952	0.957
S. pneumoniae D39V [3], partner 2.6 µg/mL	0.927	0.935	0.932

fitness, B. subtilis 168 [1], one replicate
Conditions	first compound 85.5 µg/mL	first compound 171 µg/mL	first compound 342 µg/mL
partner 0.125 µg/mL	≥ 1	0.985	0.974
partner 0.25 µg/mL	0.891	0.917	0.917
partner 0.5 µg/mL	0.913	0.916	0.905

Conditions	Bliss interaction score
B. subtilis 168 [4]	-0.0701
S. aureus DSM 20231	0.0953
S. aureus Newman [5]	0.0571
S. pneumoniae D39V [6]	0.0455

CC1(C)S[C@@H]2[C@H](NC(=O)[C@H](N)c3ccc(O)cc3)C(=O)N2[C@H]1C(=O)O [Amoxicillin] + CC(C1CCC(C(O1)OC2C(CC(C(C2O)OC3C(C(C(CO3)(C)O)NC)O)N)N)N)NC [Gentamicin]
fitness, main component drawn
Conditions	partner 0.375 µg/mL	partner 0.5 µg/mL	partner 0.75 µg/mL	partner 1 µg/mL	partner 1.5 µg/mL	partner 2 µg/mL	partner 4 µg/mL	partner 8 µg/mL
S. aureus Newman [2], first compound 0.0625 µg/mL	0.91	0.878	0.896	0.911	0.892	0.972	–	–
S. aureus Newman [2], first compound 0.125 µg/mL	0.984	0.851	≥ 1	0.899	0.974	0.968	–	–
S. aureus Newman [2], first compound 0.25 µg/mL	0.983	0.858	0.944	0.847	0.961	–	–	–
S. pneumoniae D39V [3], first compound 0.0008 µg/mL	–	–	–	–	–	0.977	0.935	0.942
S. pneumoniae D39V [3], first compound 0.0015 µg/mL	–	–	–	–	–	0.988	0.94	0.946
S. pneumoniae D39V [3], first compound 0.003 µg/mL	–	–	–	–	–	0.926	0.9	0.851

fitness, one replicate, main component drawn
Conditions	partner 2 µg/mL	partner 4 µg/mL	partner 8 µg/mL
S. aureus Newman [2], first compound 0.0625 µg/mL	–	0.0669	–
S. aureus Newman [2], first compound 0.125 µg/mL	–	0.0478	–
S. aureus Newman [2], first compound 0.25 µg/mL	–	0.0624	–
S. pneumoniae D39V [3], first compound 0.006 µg/mL	0.587	0.634	0.508

main component drawn
Conditions	Bliss interaction score
B. subtilis 168 [4]	-0.0767
S. aureus DSM 20231	0.0684
S. aureus Newman [5]	0.0602
S. pneumoniae D39V [6]	0.055
